Data on one molecule can be found in patent US20260234211A1, “POLYPEPTIDE HAVING MODIFIED STRUCTURE AND USE THEREOF” (Guangdong Raynovent Biotech Co., Ltd., priority 2023, published 2026).

SMILES strings stand for the structures.

For one data set, the target named is T1, GLP-1R (Homo sapiens, UniProt P43220).
T1 construct: host or cells: HEK293
The experiment in a line: In vitro GLP-1R agonistic activity test (cAMP, HEK293 cell line). Conditions: cAMP, HEK293 cells expressing GLP-1R; read-out: GLP-1 EC50. The format is cell-based. A digest of the protocol: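 GIPR in CHO cells and GLP-1R in HEK293 cells; compounds tested in 10-point 5-fold dilutions from 200 nM. cAMP detected with Eu-cAMP tracer and Ulight-anti-cAMP (TR-FRET) after 1 h at 25° C.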

Data set [1] in a line: Metabolic stability in human kidney S9. It counts as in vitro ADME. Conditions: human, s9. A digest of the protocol:
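Human kidney S9 (1 mg/mL final) with NADPH and UDPGA cofactors, test compound at 1 μM final, incubated at 37°C. Aliquots quenched with acetonitrile at 0.5, 5, 15, 30 and 60 min; LC-MS/MS peak areas used to derive depletion slopes.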

For a further data set, the target named is T2, GCGR (Homo sapiens, UniProt P47871).
T2 construct: host or cells: HEK293
The experiment in a line: In vitro GCGR agonistic activity test (cAMP, HEK293 cell line). It counts as cell-based. To be noted: cAMP, HEK293 cells expressing GCGR; read-out: GCG EC50. As to the method: (§1) The cell lines were constructed by Pharmaron Inc. See details in the table below.
(§2) The test compounds were diluted at a 5-fold dilution factor in 10 points, starting from an initial concentration of 200 nM.
(§3) 1) The cell lines were cultured respectively in complete medium at 37° C. and 5% CO2.
2) After digestion with TrypLE, the cells were re-suspended in experimental buffer respectively, and inoculated in a CulturPlate-384 cell culture plate at a density of 2000 cells/well and at a volume of 15 μL/well.
(§4) 1) Eu-cAMP tracer was freeze-thawed and diluted 50 fold with detection buffer; and Ulight-anti-cAMP was freeze-thawed and diluted 150 fold with detection buffer.
2) 5 μL of the test compounds were added respectively into experimental wells of the CulturPlate-384 cell culture plate, which was centrifuged at 200 g for 30 s, and left for stand at 37° C. for 30 min.
(§5) 3) 10 μL of Eu-cAMP tracer was added and then 10 μL of Uligh-anti-cAMP was added into experimental wells respectively.
(§6) 4) The reaction plate was centrifuged at 200 g at room temperature for 30 s and left for stand at 25° C. for 1 h.
5) Envision 2105 was used to collect data, with excitation light at 340 nm and emission light at 665 nm and 615 nm.

The target in the next data set is T3, GIPR (Homo sapiens, UniProt P48546).
T3 construct: host or cells: CHO
T3 sequence (P48546 22-466): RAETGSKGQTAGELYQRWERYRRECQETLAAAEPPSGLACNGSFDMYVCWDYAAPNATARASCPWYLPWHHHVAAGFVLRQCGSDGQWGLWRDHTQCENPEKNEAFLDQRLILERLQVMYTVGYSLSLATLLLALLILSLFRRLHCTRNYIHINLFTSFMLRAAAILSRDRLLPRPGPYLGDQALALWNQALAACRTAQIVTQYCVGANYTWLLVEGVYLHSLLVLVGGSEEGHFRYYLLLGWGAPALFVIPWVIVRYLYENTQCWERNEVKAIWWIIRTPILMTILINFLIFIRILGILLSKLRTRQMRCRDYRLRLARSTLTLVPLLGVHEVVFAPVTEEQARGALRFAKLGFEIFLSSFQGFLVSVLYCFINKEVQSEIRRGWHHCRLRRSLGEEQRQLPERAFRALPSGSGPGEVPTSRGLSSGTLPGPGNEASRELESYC
The data set is described as follows: In vitro GIPR agonistic activity test (cAMP, CHO cell line). It counts as cell-based. To be noted: CHO cells expressing GIPR, read-out: GIP-1 EC50. As to the method:
as §1, §2, §3, §4, §5, §6

Another data set relates to DIO obesity mouse model. The data set is described as follows: Pharmacodynamics in DIO obesity mouse model. The format is in vivo. To be noted: DIO mice. The text has this:
Experimental purpose: To evaluate the effects of multiple administration of the test substance (compound) on body weight and glucolipid metabolism.
In this experiment, mice were used as test animals, which were induced with a high-fat diet (Research Diets: D12492) from 4-5 weeks old for 8 weeks, and the animals were grouped according to their body weights and fasting blood glucose levels, with the average body weight of the model animals being 47.2±0.3 g, the average body weight of the control animals being 27.9±0.3 g, the average fasting blood glucose of the model animals being 8.8±0.2 mmol/L, and the average fasting blood glucose of the control animals being 6.0±0.2 mmol/L. There were six animals in each group. The animals were administered immediately after grouping and were administered by subcutaneous injection every 3 days for 22 consecutive days. Both the normal control and model groups were given with vehicle (20 mM citrate buffer). Body weight and food intake were measured twice a week. Fasting blood glucose was tested on Days 10 and 20, OGTT test was performed on Day 20, and blood was collected on Day 23 to test the liver function indicators (ALT, AST, ALP) and serum lipid metabolism indicators (TC, TG, HDL, LDL). Liver tissues were taken to calculate organ indexes, and liver lipid metabolism indicators (hepatic TC, TG) were detected. The liver tissues were examined pathologically (HE, Oil Red) to evaluate the effects of the test substances on body weight and glucolipid metabolism in a high-fat diet-induced obesity mouse model.
The experimental data of each group of animals was described as mean±standard error (X±SEM). P<0.05 indicated the statistically significant difference. All statistical analysis was completed using Graphpad 8.0 software.

The nature of data set [2]: Pharmacokinetic properties in Cynomolgus macaques. To be noted: cynomolgus monkey, in vivo. In short, it runs like this:
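Non-juvenile male cynomolgus macaques were used, three per compound. Plasma was sampled from 1 h to 240 h after administration. Drug levels were quantified by LC-MS/MS and pharmacokinetic parameters calculated from the concentration–time data.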

T2 sequence (P47871 26-477, species assumed): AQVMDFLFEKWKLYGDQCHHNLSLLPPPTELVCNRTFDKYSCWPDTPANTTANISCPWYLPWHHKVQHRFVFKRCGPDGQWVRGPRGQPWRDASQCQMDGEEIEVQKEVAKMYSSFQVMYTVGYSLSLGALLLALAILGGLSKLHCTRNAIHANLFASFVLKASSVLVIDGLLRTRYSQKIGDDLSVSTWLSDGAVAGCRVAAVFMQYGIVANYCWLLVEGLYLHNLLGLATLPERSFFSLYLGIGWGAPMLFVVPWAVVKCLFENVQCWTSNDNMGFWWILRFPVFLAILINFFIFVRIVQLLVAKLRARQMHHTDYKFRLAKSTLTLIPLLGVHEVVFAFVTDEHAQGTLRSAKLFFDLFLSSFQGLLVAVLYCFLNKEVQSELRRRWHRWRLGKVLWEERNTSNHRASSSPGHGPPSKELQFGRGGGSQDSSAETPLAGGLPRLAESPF
T1 sequence (P43220 24-463, species assumed): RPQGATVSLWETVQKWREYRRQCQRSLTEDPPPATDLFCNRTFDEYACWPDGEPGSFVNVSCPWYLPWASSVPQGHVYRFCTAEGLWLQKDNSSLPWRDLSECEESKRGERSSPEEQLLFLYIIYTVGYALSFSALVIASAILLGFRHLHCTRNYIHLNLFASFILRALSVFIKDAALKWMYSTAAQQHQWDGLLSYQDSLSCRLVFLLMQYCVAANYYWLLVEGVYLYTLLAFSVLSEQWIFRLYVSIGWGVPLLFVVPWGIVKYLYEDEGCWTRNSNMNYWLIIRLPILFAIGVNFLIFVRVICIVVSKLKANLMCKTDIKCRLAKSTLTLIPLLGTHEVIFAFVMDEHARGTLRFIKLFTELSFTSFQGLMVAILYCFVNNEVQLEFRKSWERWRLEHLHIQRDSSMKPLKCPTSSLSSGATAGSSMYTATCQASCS

On to `CC[C@H](C)[C@H](NC(=O)[C@H](Cc1ccccc1)NC(=O)[C@H](C)NC(=O)C(C)(C)NC(=O)[C@H](CCC(N)=O)NC(=O)[C@H](C)NC(=O)[C@H](CCCCNC(=O)COCCOCCNC(=O)CC[C@H](NC(=O)CCCCCCCCCCCCCCCCCCC(=O)O)C(=O)O)NC(=O)[C@H](CCCCN)NC(=O)[C@H](CC(=O)O)NC(=O)[C@H](CC(C)C)NC(=O)[C@](C)(CC(C)C)NC(=O)[C@@H](NC(=O)[C@H](CO)NC(=O)[C@H](Cc1ccc(O)cc1)NC(=O)[C@H](CC(=O)O)NC(=O)[C@H](CO)NC(=O)[C@@H](NC(=O)[C@H](Cc1ccccc1)NC(=O)[C@@H](NC(=O)CNC(=O)[C@H](CCC(N)=O)NC(=O)C(C)(C)NC(=O)[C@@H](N)Cc1ccc(O)cc1)[C@@H](C)O)[C@@H](C)O)[C@@H](C)CC)C(=O)N[C@@H](CCC(=O)O)C(=O)N[C@@H](Cc1ccc(O)cc1)C(=O)N[C@@H](CC(C)C)C(=O)N[C@@H](CC(C)C)C(=O)N[C@@H](CCC(=O)O)C(=O)NCC(=O)NCC(=O)N1CCC[C@H]1C(=O)N[C@@H](CO)C(=O)N[C@@H](CO)C(=O)NCC(=O)N[C@@H](C)C(=O)N1CCC[C@H]1C(=O)N1CCC[C@H]1C(=O)N1CCC[C@H]1C(=O)N[C@@H](CO)C(N)=O` [LY3437943, reference compound], for which, on GLP-1R, the EC50 stood at 0.014 nM. In data set [1], the half-life is more than 3.08 h and the microsomal CLint is less than 3.75 µL/min/mg. The EC50 on GCGR turned out to be 0.031 nM. The EC50 on GIPR is 0.001 nM. For the same molecule, the Liver-body ratio in the data set on DIO obesity mouse model (10 nmol/kg subcutaneous every 3 days) came out at 0.032 ± 0.003 g/g. In the data set with DIO obesity mouse model (10 nmol/kg subcutaneous every 3 days, first experiment), the “Change rate of body weight on Day 22” value was −29.19 ± 2.94%. Also, the “Change rate of body weight on Day 22” value in the data set on DIO obesity mouse model (10 nmol/kg, second experiment with similar protocol) is recorded as −26.32 ± 1.91%. In the data set on DIO obesity mouse model (Day 0 (at grouping), 10 nmol/kg group), the “Fasting blood glucose, Day 0” value turned out to be 8.2 ± 0.3 mmol/L. The “Fasting blood glucose, Day 10” value in the data set with DIO obesity mouse model (Day 10, 10 nmol/kg subcutaneous every 3 days) was 5.2 ± 0.9 mmol/L. Further, the “Fasting blood glucose, Day 20” value with DIO obesity mouse model (Day 20, 10 nmol/kg subcutaneous every 3 days) turned out to be 6.2 ± 0.4 mmol/L. Also, in data set [2], the AUC(0-inf) was found to be 2.93 µM·h, the AUC(0-t) was determined as 2.7 µM·h, the Cmax worked out at 22.1 nM and the Tmax is 29.3 h. In data set [2], this molecule had a half-life of 58.8 h.

The EC50 is the concentration needed to bring the measured effect to its halfway point. The term half-life denotes the time needed for the level to fall by half in the phase considered. As a reminder, the microsomal CLint is the capacity of the preparation to metabolise the compound, expressed as a volume cleared per time. A higher microsomal CLint goes with rapid turnover. The AUC(0-inf) is the area under the concentration-time curve extrapolated to infinity. For orientation: AUC(0-t) means the area under the concentration-time curve up to a stated or last time point. A higher AUC(0-t) goes with more exposure. The Cmax is the peak of the concentration-time curve. A word on the Tmax: it is the time at which the peak concentration occurs.
